Results taken from patent US20180214395A1 (priority 2017, published 2018).
Several values for one entry are separate records, joined by “and”; a condition that tells them apart may be missing. Equal entries are not always repeated. Where two headings read alike, the source gives them in different places.

Experiments:
[1] = Locomotor activity assessment (distance traveled, rearing); type: in vivo, rat; conditions: for Distance traveled min 1-5, Mean / Rearing min 1-5, Mean / Total Distance Traveled, Mean / Total Rearing, Mean: 24 hours prior to testing; for Total Rearing, Mean: 60 minute test
[2] = Female urine sniffing test (FUST); type: in vivo; conditions: rat; 24 hr after single dose; ketamine 10 mg/kg ip, d-methadone 20 mg/kg sc
[3] = Forced swim test; type: in vivo, rat; conditions: for Immobility, Mean frequency / Swimming, Mean frequency: single administration 24 hours prior, 60 counts per subject; for Immobility, Mean Diff. (Fisher's PLSD) / Swimming, Mean Diff. (Fisher's PLSD): Vehicle minus treatment
[4] = Modified Mini Mental State (3MS) in patients with chronic cancer pain (phase I-2a study); type: in vivo, human; conditions: 40 mg every 12 hours for 12 days
[5] = Clinical Opiate Withdrawal Scale (COWS) after abrupt discontinuation, MAD study; conditions: abrupt discontinuation after 10 consecutive days
[6] = test system: testosterone; assay: Serum testosterone levels in male MAD 25 mg subjects; type: in vivo, human; conditions: for Testosterone Levels, individual male subjects: hydrochloride
[7] = MAD study: pupillary constriction; type: in vivo, human; conditions: mean (SD)
[8] = both, human, in vivo
[9] = in vivo
[10] = Single ascending dose (SAD) study in healthy volunteers: pharmacokinetics of d-methadone; conditions: both, human, in vivo
[11] = rat, 24 h after dosing, one-way ANOVA

CCC(=O)C(C[C@H](C)N(C)C)(c1ccccc1)c1ccccc1 [d-methadone]
Distance traveled min 1-5, Mean ([1]; 10 mg/kg): 597.167
Rearing min 1-5, Mean ([1]; 10 mg/kg): 26.333
Total Distance Traveled, Mean ([1]; 10 mg/kg): 2605.500 cm/60 min
Total Rearing, Mean ([1]; 10 mg/kg): 119.167
Distance traveled min 1-5, Mean ([1]; 20 mg/kg): 556.833
Rearing min 1-5, Mean ([1]; 20 mg/kg): 28.667
Total Distance Traveled, Mean ([1]; 20 mg/kg): 2060.667 cm/60 min
Total Rearing, Mean ([1]; 20 mg/kg): 100.167
Distance traveled min 1-5, Mean ([1]; 40 mg/kg): 447.500
Rearing min 1-5, Mean ([1]; 40 mg/kg): 17.333
Total Distance Traveled, Mean ([1]; 40 mg/kg): 1773.000 cm/60 min
Total Rearing, Mean ([1]; 40 mg/kg): 75.000
Locomotor activity: total distance traveled (60 min) [1, 11]: no significant effect
Locomotor activity: total rearing frequency (60 min) [1, 11]: no significant effect
FUST: time sniffing water [2]: no effect
FUST: time spent sniffing female urine vs vehicle [2]: increased
Immobility, Mean frequency ([3]; 10 mg/kg): 31.400
Swimming, Mean frequency ([3]; 10 mg/kg): 20.200
Immobility, Mean frequency ([3]; 20 mg/kg): 23.556
Swimming, Mean frequency ([3]; 20 mg/kg): 32.667
Immobility, Mean frequency ([3]; 40 mg/kg): 23.200
Swimming, Mean frequency ([3]; 40 mg/kg): 26.200
Immobility, Mean Diff. (Fisher's PLSD) ([3]; 10 mg/kg): 17.600
Swimming, Mean Diff. (Fisher's PLSD) ([3]; 10 mg/kg): −12.978
Immobility, Mean Diff. (Fisher's PLSD) ([3]; 20 mg/kg): 25.444
Swimming, Mean Diff. (Fisher's PLSD) ([3]; 20 mg/kg): −25.444
Immobility, Mean Diff. (Fisher's PLSD) ([3]; 40 mg/kg): 25.800
Swimming, Mean Diff. (Fisher's PLSD) ([3]; 40 mg/kg): −18.978
Patients with 3MS improvement by at least one point [4]: five out of six
Withdrawal symptoms (COWS) [5]: did not cause symptoms of withdrawal
Testosterone serum levels ([6]; 25 mg once per day for ten days, three male subjects): increased
Testosterone Levels, individual male subjects ([6]; Day 6, 25 mg once a day for 10 days): 13.1 nmol/L
Testosterone Levels, individual male subjects ([6]; Day 12, 25 mg once a day for 10 days): 14.4 nmol/L and 10.1 nmol/L
Testosterone Levels, individual male subjects ([6]; Follow Up (Day 18 ± 1), 25 mg once a day for 10 days): 9.6 nmol/L and 13.6 nmol/L and 8.1 nmol/L
Testosterone Levels, individual male subjects ([6]; Screening (Day −1), baseline, normal range 7.6-31.4): 7.4 nmol/L and 9.2 nmol/L and 4.1 nmol/L
Greatest mean pupillary constriction (MPC) ([7]; MAD 25 mg, Day 9): −1.32 (0.553) mm
Greatest mean pupillary constriction (MPC) ([7]; MAD 50 mg, Day 6): −1.43 (0.175) mm
Greatest mean pupillary constriction (MPC) ([7]; MAD 75 mg, Day 5): −2.24 (0.619) mm
Number of doses to steady state [8]: 6-7 doses
AUCtau ([8]; 25 mg): 4392 ng·h/mL
AUCtau ([8]; 50 mg): 10,147 h*ng/mL
AUCtau ([8]; 75 mg): 10,537 h*ng/mL
Tolerability [9]: well tolerated
AUC(0-inf) ([10]; 5 mg): 1190 ng·h/mL
AUC(0-t) ([10]; 5 mg, AUC0-24, SAD 5 mg, mean): 675 ng·h/mL
AUC(0-t) ([10]; 5 mg, AUC0-last, SAD 5 mg, mean): 1250 ng·h/mL
Cmax ([10]; 5 mg, median, SAD 5 mg): 48.4 ng/mL
AUC(0-inf) ([10]; 20 mg): 6230 ng·h/mL
AUC(0-t) ([10]; 20 mg, AUC0-24, SAD 20 mg, mean): 2310 ng·h/mL
AUC(0-t) ([10]; 20 mg, AUC0-last, SAD 20 mg, mean): 4620 ng·h/mL
Cmax ([10]; 20 mg, SAD 20 mg, mean): 163 ng/mL
AUC(0-inf) ([10]; 60 mg): 14100 ng·h/mL
AUC(0-t) ([10]; 60 mg, AUC0-24, SAD 60 mg, mean): 5540 ng·h/mL
AUC(0-t) ([10]; 60 mg, AUC0-last, SAD 60 mg, mean): 13600 ng·h/mL
